Source: ChEMBL document CHEMBL4387741, “Optimization of novel reversible Bruton's tyrosine kinase inhibitors identified using Tethering-fragment-based screens” (Bioorg Med Chem, 2019)

What was measured:
[1] = molecular target: Ribosomal protein S6 kinase alpha-6 (Homo sapiens) (UniProt Q9UK32); experiment: Inhibition of wild-type human partial length C-terminal RSK4 kinase domain 2 (I401 to Y711 residues) expressed in bacterial expression system at 1 uM by Kinomescan method relative to control
[2] = system: Tyrosine-protein kinase ABL1 (Homo sapiens), P00519 [Y253F]; experiment: Inhibition of human phosphorylated ABL1 Y253F mutant (S229 to K512 residues) expressed in mammalian expression system at 1 uM by Kinomescan method relative to control
[3] = system: Mast/stem cell growth factor receptor Kit (Homo sapiens), P10721 [V559D,T670I]; experiment: Inhibition of human partial length KIT V559D/T670I double mutant (Y545 to D952 residues) expressed in bacterial expression system at 1 uM by Kinomescan method relative to control
[4] = molecular target: Casein kinase II subunit alpha' (Homo sapiens) (UniProt P19784); experiment: Inhibition of wild-type human full length CSNK2A2 (M1 to R350 residues) expressed in mammalian expression system at 1 uM by Kinomescan method relative to control
[5] = molecular target: Serine/threonine-protein kinase PLK2 (Homo sapiens) (UniProt Q9NYY3); experiment: Inhibition of wild-type human partial length PLK2 (H58 to F354 residues) expressed in mammalian expression system at 1 uM by Kinomescan method relative to control
[6] = molecular target: Tyrosine-protein kinase TXK (Homo sapiens) (UniProt P42681); experiment: Inhibition of wild-type human partial length TXK (L238 to W527 residues) expressed in bacterial expression system at 1 uM by Kinomescan method relative to control
[7] = molecular target: Proto-oncogene tyrosine-protein kinase receptor Ret (Homo sapiens) (UniProt P07949); experiment: Inhibition of wild-type human partial length RET (E713 to D1014 residues) expressed in bacterial expression system at 1 uM by Kinomescan method relative to control
[8] = molecular target: MAP kinase-interacting serine/threonine-protein kinase 1 (Homo sapiens) (UniProt Q9BUB5); experiment: Inhibition of wild-type human full length MKNK1 (M1 to L424 residues) expressed in mammalian expression system at 1 uM by Kinomescan method relative to control
[9] = system: Mast/stem cell growth factor receptor Kit (Homo sapiens), P10721 [D816H]; experiment: Inhibition of human partial length KIT D816H mutant (I571 to D952 residues) expressed in mammalian expression system at 1 uM by Kinomescan method relative to control
[10] = molecular target: Serine/threonine-protein kinase SBK1 (Homo sapiens) (UniProt Q52WX2); experiment: Inhibition of wild-type human partial length SBK1 (P23 to P348 residues) expressed in mammalian expression system at 1 uM by Kinomescan method relative to control
[11] = molecular target: Serine/threonine-protein kinase haspin (Homo sapiens) (UniProt Q8TF76); experiment: Inhibition of wild-type human partial length HASPIN (I452 to K798 residues) expressed in mammalian expression system at 1 uM by Kinomescan method relative to control
[12] = molecular target: Serine/threonine-protein kinase SIK1 (Homo sapiens) (UniProt P57059); experiment: Inhibition of wild-type human partial length SIK (M1 to Y304 residues) expressed in bacterial expression system at 1 uM by Kinomescan method relative to control
[13] = molecular target: Dual specificity protein kinase CLK4 (Homo sapiens) (UniProt Q9HAZ1); experiment: Inhibition of wild-type human partial length CLK4 (R135 to K481 residues) expressed in bacterial expression system at 1 uM by Kinomescan method relative to control
[14] = molecular target: Dual specificity mitogen-activated protein kinase kinase 7 (Homo sapiens) (UniProt O14733); experiment: Inhibition of wild-type human full length MKK7 (M1 to R419 residues) expressed in mammalian expression system at 10 uM by Kinomescan method relative to control
[15] = molecular target: Calcium/calmodulin-dependent protein kinase type IV (Homo sapiens) (UniProt Q16566); experiment: Inhibition of wild-type human partial length CAMK4 (A22 to A322 residues) expressed in bacterial expression system at 10 uM by Kinomescan method relative to control
[16] = system: Phosphatidylinositol 4,5-bisphosphate 3-kinase catalytic subunit alpha isoform (Homo sapiens), P42336 [H1047Y]; experiment: Inhibition of human partial length PIK3CA H1047Y mutant (R108 to N1068 residues) expressed in mammalian expression system at 10 uM by Kinomescan method relative to control
[17] = molecular target: Phosphatidylinositol 4-phosphate 5-kinase type-1 alpha (Homo sapiens) (UniProt Q99755); experiment: Inhibition of wild-type human full length PIP5K1A (M1 to H562 residues) expressed in bacterial expression system at 10 uM by Kinomescan method relative to control
[18] = system: Tyrosine-protein kinase ABL1 (Homo sapiens), P00519 [F317I]; experiment: Inhibition of human non-phosphorylated ABL1 F317I mutant (S229 to K512 residues) expressed in mammalian expression system at 10 uM by Kinomescan method relative to control
[19] = molecular target: Phosphatidylinositol 4,5-bisphosphate 3-kinase catalytic subunit gamma isoform (Homo sapiens) (UniProt P48736); experiment: Inhibition of wild-type human partial length PIK3CG (S144 to A1102 residues) expressed in mammalian expression system at 10 uM by Kinomescan method relative to control
[20] = molecular target: Interleukin-1 receptor-associated kinase 4 (Homo sapiens) (UniProt Q9NWZ3); experiment: Inhibition of wild-type human partial length IRAK4 (M1 to S460 residues) expressed in mammalian expression system at 10 uM by Kinomescan method relative to control
[21] = molecular target: Serine/threonine-protein kinase Nek4 (Homo sapiens) (UniProt P51957); experiment: Inhibition of wild-type human full length NEK4 (M1 to F841 residues) expressed in mammalian expression system at 10 uM by Kinomescan method relative to control
[22] = molecular target: Calcium/calmodulin-dependent protein kinase type II subunit beta (Homo sapiens) (UniProt Q13554); experiment: Inhibition of wild-type human partial length CAMK2B (M1 to Q380 residues) expressed in bacterial expression system at 10 uM by Kinomescan method relative to control
[23] = molecular target: Casein kinase I isoform alpha-like (Homo sapiens) (UniProt Q8N752); experiment: Inhibition of wild-type human full length CSNK1A1L (M1 to N337 residues) expressed in bacterial expression system at 10 uM by Kinomescan method relative to control
[24] = system: Receptor-type tyrosine-protein kinase FLT3 (Homo sapiens), P36888 [D835H]; experiment: Inhibition of human partial length FLT3 D835H mutant (V592 to Y969 residues) expressed in bacterial expression system at 10 uM by Kinomescan method relative to control
[25] = system: Phosphatidylinositol 4,5-bisphosphate 3-kinase catalytic subunit alpha isoform (Homo sapiens), P42336 [Q546K]; experiment: Inhibition of human partial length PIK3CA Q546K mutant (R108 to N1068 residues) expressed in mammalian expression system at 10 uM by Kinomescan method relative to control
[26] = molecular target: Proto-oncogene tyrosine-protein kinase Src (Homo sapiens) (UniProt P12931); experiment: Inhibition of wild-type human partial length SRC (L240 to L536 residues) expressed in bacterial expression system at 10 uM by Kinomescan method relative to control

## O=C(Nc1cccc([C@@H]2CN(c3ncnc4[nH]ccc34)CCN2CCO)c1)Nc1c(F)cccc1N1CCCC1
[1]
  inhibition: 88%
[2]
  inhibition: 100%
[3]
  inhibition: 64%
[4]
  inhibition: 81%
[5]
  inhibition: 87%
[6]
  inhibition: 63%
[7]
  inhibition: 0.3%
[8]
  inhibition: 88%
[9]
  inhibition: 18%
[10]
  inhibition: 69%
[11]
  inhibition: 78%
[12]
  inhibition: 55%
[13]
  inhibition: 100%

## O=C(Nc1cccc([C@H]2CCCN(c3ncnc4[nH]ccc34)C2)c1)Nc1ccccc1N1CCCC1
[14]
  inhibition: 68%
[15]
  inhibition: 100%
[16]
  inhibition: 61%
[17]
  inhibition: 5.1%
[18]
  inhibition: 100%
[19]
  inhibition: 75%
[20]
  inhibition: 85%
[21]
  inhibition: 87%
[22]
  inhibition: 87%
[23]
  inhibition: 100%
[24]
  inhibition: 1.3%
[25]
  inhibition: 81%
[26]
  inhibition: 80%
